Experimental data reported in the RepoRT retention time repository (doi:10.1016/j.jhazmat.2019.121712).

Experiment: Thermo Scientific Acclaim RSLC 120 C18, 100 × 2.1 mm, 2.2 µm, 30 °C; A: 90% water + 10% methanol + 0.01% formic acid + 5 mM ammonium formate; B: methanol + 0.01% formic acid + 5 mM ammonium formate; gradient (min/%B) 0.1/1 3/39 14/99.9 16/99.9
Settings: stereoisomer not certain

| SMILES | LC retention time [min] |
| --- | --- |
| CC1(C)C(C(=O)OC(C#N)c2cccc(Oc3ccccc3)c2)C1(C)C (configuration not stated) | 12.9 |
| CC[N+]1([O-])CCCC1CNC(=O)c1cc(S(=O)(=O)CC)c(N)cc1OC (configuration not stated) | 4.33 |
| COCCOc1ccccc1S(=O)(=O)NC(=O)Nc1nc(OC)nc(OC)n1 | 6.36 |
| CCN(CC)CC(C)(C)COC(=O)c1ccc(N)cc1 | 4.24 |
| CCc1cnc(C2=NC(C)(C(C)C)C(=O)N2)c(C(=O)O)c1 (configuration not stated) | 5.6 |
| CCOC(=O)c1ccccc1C(=O)OCC | 8.5 |
| COc1ccc(CC(C)N)c(OC)c1OC (configuration not stated) | 4.16 |
| CCN(CC)C(=O)Nc1ccc(OCC(O)CNC(C)(C)C)c(C(C)=O)c1 (configuration not stated) | 5.24 |
| CC(=O)CCCCn1c(=O)c2c(ncn2C)n(C)c1=O | 5.23 |
| COc1ccc(Cc2nccc3cc(OC)c(OC)cc23)cc1OC | 6.27 |
| CCN(CC)CC#CCOC(=O)C(O)(c1ccccc1)C1CCCCC1 (configuration not stated) | 8.92 |
| CCCc1nn(C)c2c(=O)[nH]c(-c3cc(C(=O)CN4CCN(CC=Cc5ccccc5)CC4)ccc3OCC)nc12 | 9.28 |
| CCCc1nc(C)c2c(=O)[nH]c(-c3cc(S(=O)(=O)N4CCCCC4)ccc3OCC)nn12 | 10.6 |
| CCCc1nn(C)c2c(=O)[nH]c(-c3cc(S(=O)(=O)N4CC(C)NC(C)C4)ccc3OCC)nc12 (configuration not stated) | 7.6 |
| CNC(=O)ON=CC(C)(C)SC | 6.17 |
| CC(=O)Nc1ccc(O)cc1 | 3.48 |
| CC(C)N(Cc1ccccc1)C(=O)C(C)(C)C | 10.2 |
| CNC(=O)ON=CC(C)(C)S(C)=O (configuration not stated) | 3.5 |
| COC(=O)C(c1ccccc1)C1CCCCN1 (configuration not stated) | 4.96 |
| c1ccc(CC2=NCCN2)cc1 | 3.28 |
| Cc1ncc([N+](=O)[O-])n1C | 4.27 |
| c1cncc(C2CCCN2)c1 (configuration not stated) | 3.14 |
| c1cncc(C2CCCCN2)c1 (configuration not stated) | 2.94 |

| SMILES | LC retention time [min] |
| --- | --- |
| c1cnc2cc3c(cc2n1)C1CNCC3C1 | 3.63 |
| O=C(c1cccc2ccccc12)c1cn(CCCCCO)c2ccccc12 | 10 |
| CCN1CCCC1CNC(=O)c1cc(S(N)(=O)=O)ccc1O (configuration not stated) | 3.18 |
| COc1ccc(OC)c(CCN)c1 | 4.43 |
| CN(C)c1nc(=O)n(C2CCCCC2)c(=O)n1C | 7.09 |
| COc1ccc2c3c1OC1C(OC4OC(C(=O)O)C(O)C(O)C4O)C=CC4C(C2)NCCC341 (configuration not stated) | 2.48 |
| CCOP(=O)(OCC)OP(=O)(OCC)OCC | 6.49 |
| CCCCOc1ccc(CC(=O)NO)cc1 | 7.83 |
| CN1CCOC(c2ccccc2)c2ccccc2C1 (configuration not stated) | 5.67 |
| CCCCCn1cc(C(=O)Oc2cccc3cccnc23)c2ccccc21 | 11.9 |
| COc1ccc2c(c1OC)C(=O)OC2C1c2c(cc3c(c2OC)OCO3)CCN1C (configuration not stated) | 6.96 |
| COc1ccc2c(c1O)-c1c3c(cc4c1C(C2)N(C)CC4)OCO3 (configuration not stated) | 4.36 |
| COc1cccc(C(=O)CCNC(C)C(O)c2ccccc2)c1 (configuration not stated) | 6.14 |
| Cc1ccc(NC(=O)NC(C)(C)c2ccccc2)cc1 | 9.68 |
| CSC(C)=NOC(=O)N(C)SN(C)C(=O)ON=C(C)SC | 7.64 |
| Cc1c(NC(=O)c2cccnc2)c(=O)n(-c2ccccc2)n1C | 4.56 |
| Cc1ccc(NS(=O)(=O)N(C)C)cc1 | 7.25 |
| CCCCn1cc(C(=O)c2cccc3ccccc23)c2cc(O)ccc21 | 11.3 |
| COc1ccc2c3c1OC1C(O)CCC4C(C2)N(C)CCC341 (configuration not stated) | 3.36 |
| Cc1cccc(C)c1OCC(=O)NC(Cc1ccccc1)C(O)CC(Cc1ccccc1)NC(=O)C(C(C)C)N1CCCNC1=O (configuration not stated) | 11.8 |
| Cc1nnc2n1-c1ccc([N+](=O)[O-])cc1C(c1ccccc1)=NC2 | 6.91 |
| CCn1cc(C(=O)O)c(=O)c2ccc(C)nc21 | 7.06 |
| NC1Cc2cc3c(cc2C1)OCO3 | 3.81 |

| SMILES | LC retention time [min] |
| --- | --- |
| CC(C)Nc1nc(N)[nH]c(=O)n1 | 3.16 |
| CC(N)C(=O)c1ccccc1 (configuration not stated) | 3.59 |
| CCCCSP(=O)(SCCCC)SCCCC | 13.4 |
| CC(=O)OCCC(SC(C)=O)=C(C)N(C=O)Cc1cnc(C)nc1N | 4.46 |
| CCOP(=S)(OCC)Oc1cc(C)nc(N(CC)CC)n1 | 12.3 |
| CC(=O)Oc1cc(C(C)C)c(OCCN(C)C)cc1C | 6.21 |
| COP(=O)(OC)OC(C)=CC(=O)OC(C)c1ccccc1 (configuration not stated) | 9.39 |
| CCC(CN(C)C)(CN(C)C)OC(=O)c1ccccc1 | 6.07 |
| CNC1C(OC2C(OC3C(O)C(O)C(N=C(N)N)C(O)C3N=C(N)N)OC(C)C2(O)CO)OC(CO)C(O)C1O (configuration not stated) | 1.26 |
| CCOc1ccccc1C(N)=O | 5.68 |
| Nc1ncnc2c1ncn2C1OC(CO)C(O)C1O (configuration not stated) | 3.14 |
| CCC(=O)OC(Cc1ccccc1)(c1ccccc1)C(C)CNC (configuration not stated) | 7.84 |
| CN1CCC(=C2c3ccccc3CC(=O)c3sccc32)CC1 | 5.54 |
| CCCC(C(=O)OCCN(CC)CC)(c1ccccc1)c1ccccc1 | 9.41 |
| CN1CCC23c4c5ccc(OCCN6CCOCC6)c4OC2C(O)C=CC3C1C5 (configuration not stated) | 2.73 |
| CC(C)C1(NC(=O)C2CC3c4cccc5[nH]cc(c45)CC3N(C)C2)OC2(O)C3CCCN3C(=O)C(Cc3ccccc3)N2C1=O (configuration not stated) | 8.17 |
| COC(=O)c1ccccc1S(=O)(=O)NC(=O)Nc1nc(C)cc(C)n1 | 6.92 |
| NC(=O)c1ncn(C2OC(CO)C(O)C2O)n1 (configuration not stated) | 1.36 |
| CCN1CC(CCN2CCOCC2)C(c2ccccc2)(c2ccccc2)C1=O (configuration not stated) | 6.23 |
| CCN(CC)C(=O)C(C)Oc1cccc2ccccc12 (configuration not stated) | 10.2 |
| CCCCCn1cc(C(=O)c2ccc(OC)cc2)c2ccccc21 | 11.8 |
| CNCCCC(C#N)(c1ccc(OC)c(OC)c1)C(C)C (configuration not stated) | 6.14 |
| CCOP(=O)(OCC)SCSCC | 8.6 |

| SMILES | LC retention time [min] |
| --- | --- |
| CC12C=CC(=O)C=C1CCC1C2CCC2(C)C(O)CCC12 (configuration not stated) | 9.03 |
| CCN(CC)CCN1c2ccccc2Sc2ccccc21 | 7.76 |
| CCN(CC)C(=O)NC1C=C2c3cccc4[nH]cc(c34)CC2N(C)C1 (configuration not stated) | 5.92 |
| CN(C(=O)COc1nc2ccccc2s1)c1ccccc1 | 9.83 |
| NS(=O)(=O)Cc1noc2ccccc12 | 4.53 |
| Nc1ccc(S(=O)(=O)Nc2cnc3ccccc3n2)cc1 | 5.81 |
| CCCN(CCC)C(=O)SCc1ccccc1 | 11.9 |
| CNC(=O)Nc1nc2ccccc2s1 | 7.13 |
| NCCCCC(NC(CCc1ccccc1)C(=O)O)C(=O)N1CCCC1C(=O)O (configuration not stated) | 3.98 |
| COc1cc(CCN)cc(OC)c1OC | 3.88 |
| O=C(c1cccc2ccccc12)c1cn(CCN2CCOCC2)c2cccc(O)c12 | 10.1 |
| CCC(CO)NC(=O)C1C=C2c3cccc4[nH]cc(c34)CC2N(C)C1 (configuration not stated) | 4.34 |
| CCCC(C(=O)c1ccc(C)cc1)N1CCCC1 (configuration not stated) | 6.03 |
| CC(O)Cn1cnc2c1c(=O)n(C)c(=O)n2C (configuration not stated) | 4.34 |
| COc1cc2c(c(OC)c1OC)-c1ccc(OC)c(=O)cc1C(NC(C)=O)CC2 (configuration not stated) | 6.43 |
| Nc1ccc(O)c(C(=O)O)c1 | 1.63 |
| NC(Cc1cnc[nH]1)C(=O)O (configuration not stated) | 1.23 |
| CC(=O)Nc1nnc(S(N)(=O)=O)s1 | 3.43 |
| NC12CC3CC(CC(C3)C1)C2 | 4.86 |
| CC(C)=CC1C(C(=O)OCc2coc(Cc3ccccc3)c2)C1(C)C (configuration not stated) | 13.6 |
| Cc1ccc2c(-c3ccccc3)nc(=O)n(C(C)C)c2c1 | 9.61 |
| CCCCCCCCCc1ccc(OCCOCCO)cc1 | 13.8 |
| CC1CC(C)C(=O)C(C(O)CC2CC(=O)NC(=O)C2)C1 (configuration not stated) | 5.99 |

| SMILES | LC retention time [min] |
| --- | --- |
| CN1Cc2c(N)cccc2C(c2ccccc2)C1 (configuration not stated) | 5.42 |
| CNC(=O)CSP(=O)(OC)OC | 3.35 |
| CCCCC(=O)N(Cc1ccc(-c2ccccc2-c2nn[nH]n2)cc1)C(C(=O)O)C(C)C (configuration not stated) | 9.21 |
| CCCc1nn(C)c2c(=O)[nH]c(-c3cc(C(=O)CN4CCN(CCO)CC4)ccc3OCC)nc12 | 6.94 |
| CCCCC(CC)COC(=O)C(C#N)=C(c1ccccc1)c1ccccc1 (configuration not stated) | 13.4 |
| CC(C)(C)NCC(O)c1cc(O)cc(O)c1 (configuration not stated) | 3.11 |
| CN1CCN2c3ncccc3Cc3ccccc3C2C1 (configuration not stated) | 5.29 |
| COC1CC(OC2C(C)OC(OC3C(C)=CCC4CC(CC5(C=CC(C)C(C(C)C)O5)O4)OC(=O)C4C=C(C)C(O)C5OCC(=CC=CC3C)C45O)CC2OC)OC(C)C1O (configuration not stated) | 13.4 |
| NC(=O)N=C(N)N | 1.31 |
| CCOP(=S)(Oc1ccc(C#N)cc1)c1ccccc1 (configuration not stated) | 10.9 |
| c1ccc(C2CN3CCSC3=N2)cc1 (configuration not stated) | 3.68 |
| CCCC(Cc1ccccc1)N1CCCC1 (configuration not stated) | 5.56 |
| CN1CCCN=C1COC(=O)C(O)(c1ccccc1)C1CCCCC1 (configuration not stated) | 7.98 |
| CC=C1CC(C)C(O)(CO)C(=O)OCC2=CCN3CCC(OC1=O)C23 (configuration not stated) | 4.01 |
| COc1ccc2c3c1OC1C(O)C=CC4C(C2)N(C)CCC341 (configuration not stated) | 3.4 |
| CCC(C)N(C(=O)SCc1ccccc1)C(C)CC (configuration not stated) | 12.8 |
| C=C(C)C1Cc2c(ccc3c2OC2COc4cc(OC)c(OC)cc4C2C3=O)O1 (configuration not stated) | 10.5 |
| CCC(CC)(CNC(=O)CCCO)c1cccc(OC)c1 | 8.98 |
| CC(C)C1(C)N=C(c2ncccc2C(=O)O)NC1=O (configuration not stated) | 4.1 |
| CCCCc1c(C)nc(N(C)C)[nH]c1=O | 7.7 |
